Data published in patent US20240342148A1, “METHODS OF TREATING FACIOSCAPULOHUMERAL MUSCULAR DYSTROPHY WITH LOSMAPIMOD” (Fulcrum Therapeutics, Inc., priority 2021, published 2024).
Several values for one entry are separate records, joined by “and”; a condition that tells them apart may be missing. Equal values may be shown once.

What was measured:
subjects with FSHD [1] = test: Reachable workspace, Open Label Study, exploratory annualized analysis; format: in vivo, human; conditions: with and without weights
Description: In the Open Label Study, reachable workspace (RWS) with and without weights has also been evaluated. FIG. 27 provides exploratory annualized percentage changes of RWS from baseline of patients participating in the study.

[2] = Muscle losmapimod concentrations in needle biopsies; format: in vivo; conditions: human, po, 15 mg BID, 15 mg orally BID
Protocol: Muscle needle biopsies were performed using the Bergstrom needle or fine needle at D1 and Wk16, or Wk36 if the muscle biopsy could not be performed at Wk16. The choice of the muscle(s) to be biopsied was determined by the investigator, informed by MRI taken during screening. Only those STIR+ muscles with 10%≤MFF≤40% were eligible for biopsy. […] The bilateral vastus lateralis, vastus medialis, lateral gastrocnemius, medial gastrocnemius, and tibialis anterior were evaluated for eligibility by MRI using a central reader. The Wk16 or Wk36 muscle needle biopsies were performed in the same approximate location as the pretreatment (D1) muscle biopsy. At baseline, MRI fiducials were placed in order to identify the location for the needle biopsy. Coordinates in reference to the closest fiducial defined the location for the muscle biopsy. […] Approximately 15-40 mg of tissue was obtained at each biopsy and frozen in liquid nitrogen within 60 seconds after excision and stored at −80° C. (SciSafe Inc. Billerica, MA, USA) until analysis.
Plasma and muscle losmapimod concentrations were measured by 2 validated bioanalytical high-performance liquid chromatography methods by PPD, USA (PPD 2019).

subjects with FSHD [3] = test: Patients' Global Impression of Change (PGIC); format: in vivo, human; conditions: Wk48
Protocol: The Patients' Global Impression of Change (PGIC) Questionnaire was administered at every visit after baseline. Subjects were asked to rate their overall status since the start of the study on a scale from 1 (very much improved) to 7 (very much worse). The PGIC scale has been validated in several other indications and is recommended by the FDA for use as a meaningful measure of within-patient change.

[4] = tested on: DUX4-regulated gene transcripts; test: DUX4-regulated transcript analysis by RT-qPCR in muscle biopsies (primary endpoint); format: in vivo, human; conditions: log 2 scale
Protocol: All efficacy analyses were performed using the full analysis set (FAS), according to the randomized treatment group. The primary endpoint, change from baseline in DUX4 activity (DUX4 Score 1), was analyzed using the analysis of covariance approach, with treatment group and FSHD repeat number category (1 to 3 repeats versus 4 to 9 repeats) as fixed effects, and baseline DUX4 Score 1 as a covariate. Multiplicity adjustment was not performed, as the primary endpoint was not met.
Muscle needle biopsies were performed using the Bergstrom needle or fine needle at D1 and Wk16, or Wk36 if the muscle biopsy could not be performed at Wk16. The choice of the muscle(s) to be biopsied was determined by the investigator, informed by MRI taken during screening. […] The bilateral vastus lateralis, vastus medialis, lateral gastrocnemius, medial gastrocnemius, and tibialis anterior were evaluated for eligibility by MRI using a central reader. […]
The muscle tissue collected at each muscle needle biopsy (D1 and Wk16 or Wk36) was analyzed for DUX4 activity using a molecular panel of DUX4-regulated gene transcripts (CCNA1, KHDC1L, MBD312, PRAMEF6, SLC34A2 and ZSCAN4, with TBP, HMBS, CDKN1B as reference genes). Raw Cycle Thresholds (Cts) from quantitative polymerase chain reaction (qPCR) were determined for DUX4 regulated genes using a validated assay (Fluidigm). […]

subjects with FSHD1 = test: Muscle ultrasound echogenicity, open-label study in FSHD1; format: in vivo, human
Protocol: Fourteen subjects age 18 to 65 years with genetically confirmed FSHD1, clinical severity score of 2 to 4 (range 0-5) and MRI-eligible skeletal muscles for needle biopsy received open-label 15 mg twice daily losmapimod for 52 weeks with the primary objective of safety. Assessments included safety, MRI, muscle ultrasound (US), clinical outcomes, and PROs. US was performed on 7 muscles bilaterally using a standardized protocol. US echointensity was expressed as a z-score relative to matched healthy controls, with abnormal being defined as >2.

[5] = open-label 15 mg twice daily, 52 weeks

concentration at 16 weeks ([2]; Wk16 biopsy, read-out: Concentrations in muscles at Wk16): 61 ± 7.7 ng/g | concentration at 36 weeks ([2]; Wk36 biopsy, read-out: Concentrations in muscles at Wk36): 91.1 ± 10.7 ng/g
Compound: Cc1c(F)cc(C(=O)NC2CC2)cc1-c1ccc(C(=O)NCC(C)(C)C)cn1 [losmapimod, 6-(5-cyclopropylcarbamoyl-3-fluoro-2-methyl-phenyl)-N-(2,2-dimethylpropyl-)-nicotinamide]
Annualized RWS increase from baseline, Q1 and Q3 (largest increases) (subjects with FSHD [1]): 7-17% | Patients reporting feeling very much worse on PGIC (6-7 in Likert scale) (subjects with FSHD [3]): No losmapimod treated patients | Patients reporting improvement on PGIC (1-3 in Likert scale) (subjects with FSHD [3]): 27.5% and ~20% | PGIC difference compared to placebo (subjects with FSHD [3]; 1-7 Likert scale, p=0.02): 0.58 | Change in DUX4 activity, difference losmapimod vs placebo ([4]; 95% CI −1.04, 1.89, p=0.56): 0.43 | Change from baseline in DUX4 activity ([4]; combined Wk16 or Wk36 muscle biopsies): 0.83 | Mean (SD) change from baseline in echogenicity of all muscles (subjects with FSHD1; [5]): -0.17 (0.9) z-score | Mean (SD) change from baseline in echogenicity, lower extremities (subjects with FSHD1; [5]): −0.13 (1.0) z-score | Mean (SD) change from baseline in echogenicity, upper extremity muscles (subjects with FSHD1; [5]): −0.32 (0.9) z-score | Distribution of echogenicity z-scores of muscles at baseline versus the last visit (subjects with FSHD1; z-score classes <2, 2-4, 4-6, >6): stayed the same or decreased
